From PubChem BioAssay (NCI)
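Cells were grown in 96-well plates and exposed to each compound for 48 hours at five concentrations; endpoints were interpolated linearly between bracketing concentrations, or set to the highest concentration if not reached. TGI denotes the concentration required for complete inhibition of growth.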

Legend:
Assay in all cases: NCI anticancer screen, dose series, 48 h
[1] = test system: MDA-N
[2] = test system: CAKI-1 renal
[3] = test system: SF-295 CNS
[4] = test system: SK-OV-3 ovarian
[5] = test system: COLO 205 colon
[6] = test system: HCT-15 colon
[7] = test system: SNB-19 CNS
[8] = test system: MOLT-4 leukemia
[9] = test system: HT29 colon
[10] = test system: HS 578T breast
[11] = test system: MALME-3M melanoma

## O=C1CSC(c2cccc([N+](=O)[O-])c2)N1c1ccc(-n2c(-c3ccccc3)nc3ccccc3c2=O)cc1 (configuration not stated)
[1]
  TGI: > 100 µM
[2]
  TGI: > 100 µM
[3]
  TGI: > 100 µM
[4]
  TGI: > 100 µM
[5]
  TGI: > 100 µM
[6]
  TGI: > 100 µM
[7]
  TGI: > 100 µM
[8]
  TGI: > 100 µM
[9]
  TGI: > 100 µM
[10]
  TGI: > 100 µM
[11]
  TGI: > 100 µM

## Cc1ccccc1S(=O)(=O)Nn1cnc2ccc(S(=O)(=O)Nc3ccc(Cl)cc3)cc2c1=O
[1]
  TGI: > 100 µM
[2]
  TGI: > 100 µM
[3]
  TGI: > 100 µM
[4]
  TGI: > 100 µM
[5]
  TGI: > 100 µM
[6]
  TGI: > 100 µM
[7]
  TGI: > 100 µM
[8]
  TGI: > 100 µM
[9]
  TGI: > 100 µM
[10]
  TGI: > 100 µM
[11]
  TGI: > 100 µM

## CO/N=C(\C)CCC#Cc1ccccc1C(=O)OC
[1]
  TGI: > 10 µM
[2]
  TGI: > 10 µM
[3]
  TGI: > 10 µM
[4]
  TGI: > 10 µM
[5]
  TGI: > 10 µM
[6]
  TGI: > 10 µM
[7]
  TGI: > 10 µM
[8]
  TGI: > 10 µM
[9]
  TGI: > 10 µM
[10]
  TGI: > 10 µM
[11]
  TGI: > 10 µM

## CC1=C(C)Cc2c(O)ccc(O)c2C1
[1]
  TGI: 30.7 µM
[2]
  TGI: 34.1 µM
[3]
  TGI: > 100 µM
[4]
  TGI: > 100 µM
[5]
  TGI: 34.7 µM
[6]
  TGI: 33.1 µM
[7]
  TGI: > 100 µM
[8]
  TGI: 97.2 µM
[9]
  TGI: 30.5 µM
[10]
  TGI: 33.6 µM
[11]
  TGI: 31.6 µM

## COC(=O)C(CCSC)NC(=O)Cc1ccc(C(=O)c2ccccc2)cc1 (configuration not stated)
[1]
  TGI: 35.1 µM
[2]
  TGI: > 100 µM
[3]
  TGI: > 100 µM
[4]
  TGI: > 100 µM
[5]
  TGI: > 100 µM
[6]
  TGI: > 100 µM
[7]
  TGI: > 100 µM
[8]
  TGI: > 100 µM
[9]
  TGI: 65.5 µM
[10]
  TGI: > 100 µM
[11]
  TGI: > 100 µM

## Cc1ccc(S(=O)(=O)NNCNC(=O)c2ccccc2)cc1
[1]
  TGI: > 100 µM
[2]
  TGI: > 100 µM
[3]
  TGI: > 100 µM
[4]
  TGI: > 100 µM
[5]
  TGI: > 100 µM
[6]
  TGI: > 100 µM
[7]
  TGI: > 100 µM
[8]
  TGI: > 100 µM
[9]
  TGI: > 100 µM
[10]
  TGI: > 100 µM
[11]
  TGI: > 100 µM

## CCOC(=O)c1c(N2CCOCC2)[nH]c(=O)c(C(c2ccco2)c2c(O)c(C(=O)OCC)c(N3CCOCC3)[nH]c2=O)c1O
[1]
  TGI: > 100 µM
[2]
  TGI: > 100 µM
[3]
  TGI: > 100 µM
[4]
  TGI: > 100 µM
[5]
  TGI: > 100 µM
[6]
  TGI: > 100 µM
[7]
  TGI: > 100 µM
[8]
  TGI: > 100 µM
[9]
  TGI: > 100 µM
[10]
  TGI: > 100 µM
[11]
  TGI: > 100 µM

## Cc1ccnc(NC(NC(=O)c2ccccc2)(C(F)(F)F)C(F)(F)F)c1
[1]
  TGI: > 100 µM
[2]
  TGI: > 100 µM
[3]
  TGI: > 100 µM
[4]
  TGI: > 100 µM
[5]
  TGI: > 100 µM
[6]
  TGI: > 100 µM
[7]
  TGI: > 100 µM
[8]
  TGI: > 100 µM
[9]
  TGI: > 100 µM
[10]
  TGI: > 100 µM
[11]
  TGI: > 100 µM

## Cn1c2ccccc2c(=O)c2cccc(C(=O)NC(CCC(N)=O)C(=O)O)c21 (configuration not stated)
[1]
  TGI: > 100 µM
[2]
  TGI: > 100 µM
[3]
  TGI: > 100 µM
[4]
  TGI: > 100 µM
[5]
  TGI: > 100 µM
[6]
  TGI: > 100 µM
[7]
  TGI: > 100 µM
[8]
  TGI: > 100 µM
[9]
  TGI: > 100 µM
[10]
  TGI: > 100 µM
[11]
  TGI: > 100 µM

## CC(C)(C)OC(=O)N1C(c2cccnc2)=CC[C@H]2C3CC=C(c4cccnc4)[C@@]3(C)CC[C@@H]21 (some centres not stated)
[1]
  TGI: 9.2 µM
[2]
  TGI: 30.2 µM
[3]
  TGI: 11.1 µM
[4]
  TGI: 15 µM
[5]
  TGI: 3.19 µM
[6]
  TGI: 13.8 µM
[7]
  TGI: 17.2 µM
[8]
  TGI: > 100 µM
[9]
  TGI: 11.8 µM
[10]
  TGI: 24.7 µM
[11]
  TGI: 13.3 µM

## O=C1C(c2c(O)[nH]c3ccc(Br)cc23)=Nc2ccccc21
[1]
  TGI: 34.8 µM
[2]
  TGI: 38.8 µM
[3]
  TGI: 51 µM
[4]
  TGI: 40.9 µM
[5]
  TGI: 31.4 µM
[6]
  TGI: > 100 µM
[7]
  TGI: 28.1 µM
[8]
  TGI: > 100 µM
[9]
  TGI: 15 µM
[10]
  TGI: 54.6 µM
[11]
  TGI: 44.4 µM

## C/C(=N\NC(=S)NCCCNC(=S)N/N=C(\C)c1ccccn1)c1ccccn1
[1]
  TGI: > 100 µM
[2]
  TGI: > 49.9 µM
[3]
  TGI: 46.1 µM
[4]
  TGI: > 35.1 µM
[5]
  TGI: > 34.9 µM
[6]
  TGI: > 30.7 µM
[7]
  TGI: > 69.7 µM
[8]
  TGI: > 100 µM
[9]
  TGI: > 100 µM
[10]
  TGI: > 100 µM
[11]
  TGI: 17.5 µM

## CCOC(=O)CCC(NC(=O)c1ccc(OCc2ccc3nc(-c4ccccc4)c(Cl)nc3c2)cc1)C(=O)OCC (configuration not stated)
[1]
  TGI: > 100 µM
[2]
  TGI: > 100 µM
[3]
  TGI: > 31.6 µM
[4]
  TGI: > 100 µM
[5]
  TGI: > 100 µM
[6]
  TGI: > 31.6 µM
[7]
  TGI: 31.1 µM
[8]
  TGI: > 31.6 µM
[9]
  TGI: > 31.6 µM
[10]
  TGI: > 31.6 µM
[11]
  TGI: > 100 µM

## CC(C)(C)c1cc(O)ccc1O
[1]
  TGI: > 100 µM
[2]
  TGI: > 70.4 µM
[3]
  TGI: > 100 µM
[4]
  TGI: > 100 µM
[5]
  TGI: > 100 µM
[6]
  TGI: > 100 µM
[7]
  TGI: > 100 µM
[8]
  TGI: 27.1 µM
[9]
  TGI: > 100 µM
[10]
  TGI: > 100 µM
[11]
  TGI: > 27.6 µM

## Oc1ccc2c(c1)-c1c(c3ccccc3n1CCN1CCOCC1)CC2
[1]
  TGI: > 100 µM
[2]
  TGI: > 100 µM
[3]
  TGI: > 100 µM
[4]
  TGI: 85.2 µM
[5]
  TGI: > 100 µM
[6]
  TGI: > 100 µM
[7]
  TGI: > 100 µM
[8]
  TGI: > 100 µM
[9]
  TGI: > 100 µM
[10]
  TGI: > 100 µM
[11]
  TGI: > 100 µM

## CCOC(=O)C(SCCO)C(C(=O)OCC)n1ccc(=O)[nH]c1=O (configuration not stated)
[1]
  TGI: 97.8 µM
[2]
  TGI: 39.5 µM
[3]
  TGI: > 100 µM
[4]
  TGI: > 100 µM
[5]
  TGI: > 59.3 µM
[6]
  TGI: > 57.5 µM
[7]
  TGI: > 100 µM
[8]
  TGI: 21.7 µM
[9]
  TGI: 83.3 µM
[10]
  TGI: > 100 µM
[11]
  TGI: 32.9 µM

## O=c1/c(=C/c2ccc(-c3ccc(Cl)cc3Cl)o2)sc2n1[C@@H](c1ccc(Cl)cc1)C=C(c1cc(F)c(Cl)cc1Cl)N=2
[1]
  TGI: > 100 µM
[2]
  TGI: > 100 µM
[3]
  TGI: > 100 µM
[4]
  TGI: 61.7 µM
[5]
  TGI: > 100 µM
[6]
  TGI: > 100 µM
[7]
  TGI: > 100 µM
[8]
  TGI: 67.9 µM
[9]
  TGI: > 100 µM
[10]
  TGI: > 100 µM
[11]
  TGI: > 100 µM

## Nn1c(Cc2ccc([N+](=O)[O-])cc2)n[nH]c1=O
[1]
  TGI: > 100 µM
[2]
  TGI: > 100 µM
[3]
  TGI: > 100 µM
[4]
  TGI: > 100 µM
[5]
  TGI: > 100 µM
[6]
  TGI: > 100 µM
[7]
  TGI: > 100 µM
[8]
  TGI: > 100 µM
[9]
  TGI: > 100 µM
[10]
  TGI: > 100 µM
[11]
  TGI: > 100 µM

## COc1cc(Cc2nccc3cc(OC)c(OC)cc23)c(N=NN(C)C)cc1OC
[1]
  TGI: 46.1 µM
[2]
  TGI: 22.3 µM
[3]
  TGI: 74.9 µM
[4]
  TGI: 49.2 µM
[5]
  TGI: 33.8 µM
[6]
  TGI: 19.6 µM
[7]
  TGI: 85.2 µM
[8]
  TGI: 90.3 µM
[9]
  TGI: 25 µM
[10]
  TGI: 86.5 µM
[11]
  TGI: 38.4 µM

## CCCCCCCCCCNC(=O)CCC(NC(=O)c1ccc(N(C)Cc2cnc3nc(N)nc(N)c3n2)cc1)C(=O)NCCCCCCCCCC (configuration not stated)
[1]
  TGI: 21.9 µM
[2]
  TGI: > 100 µM
[3]
  TGI: > 100 µM
[4]
  TGI: 65.3 µM
[5]
  TGI: 15.2 µM
[6]
  TGI: > 100 µM
[7]
  TGI: 31.7 µM
[8]
  TGI: 30.5 µM
[9]
  TGI: 35.2 µM
[10]
  TGI: 20.8 µM
[11]
  TGI: 37.7 µM

## CC(=O)Nc1ccc(C2SCc3nc4ccccc4n32)cc1 (configuration not stated)
[1]
  TGI: > 100 µM
[2]
  TGI: > 100 µM
[3]
  TGI: > 100 µM
[4]
  TGI: > 100 µM
[5]
  TGI: > 100 µM
[6]
  TGI: > 100 µM
[7]
  TGI: > 100 µM
[8]
  TGI: > 100 µM
[9]
  TGI: > 100 µM
[10]
  TGI: > 95.5 µM
[11]
  TGI: > 86.8 µM

## COc1ccccc1C(=O)c1c(NCc2ccccc2)c(=O)c1=O
[1]
  TGI: > 100 µM
[2]
  TGI: > 100 µM
[3]
  TGI: > 100 µM
[4]
  TGI: > 100 µM
[5]
  TGI: 98.7 µM
[6]
  TGI: > 100 µM
[7]
  TGI: > 100 µM
[8]
  TGI: 83.3 µM
[9]
  TGI: > 100 µM
[10]
  TGI: > 100 µM
[11]
  TGI: 75.9 µM
